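Protocol summary: plate cells (96-well), add compound at 5 concentrations, incubate 48 h, interpolate endpoints linearly. GI50 marks 50% less growth.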 Activity calls are given as the source filed them. Cut-off read from the data, not from the text of the source: active = GI50 up to about 1.1 µM and inactive = higher.
Experiments:
Test in all cases: inhibition of tumour cell growth, NCI panel, 48 h
HCT-116 = test system: HCT-116
BT-549 = test system: BT-549
HOP-62 = test system: HOP-62
SK-MEL-28 = test system: SK-MEL-28
KM12 = test system: KM12
HL-60 = test system: HL-60
OVCAR-4 = test system: OVCAR-4
SF-539 = test system: SF-539
OVCAR-5 = test system: OVCAR-5
DU-145 = test system: DU-145
EKVX = test system: EKVX
UO-31 = test system: UO-31
SR = test system: SR
MOLT-4 = test system: MOLT-4
NCI/ADR-RES = test system: NCI/ADR-RES
UACC-62 = test system: UACC-62
SF-295 = test system: SF-295
K562 = test system: K562
SK-MEL-2 = test system: SK-MEL-2
SNB-75 = test system: SNB-75
MCF7 = test system: MCF7
T47D = test system: T47D
NCI-H23 = test system: NCI-H23
UACC-257 = test system: UACC-257
Hs-578T = test system: Hs-578T
COLO 205 = test system: COLO 205
SK-MEL-5 = test system: SK-MEL-5
Malme-3M = test system: Malme-3M
786-0 = test system: 786-0
SK-OV-3 = test system: SK-OV-3
MDA-N = test system: MDA-N
TK-10 = test system: TK-10
SF-268 = test system: SF-268
ACHN = test system: ACHN
PC-3 = test system: PC-3
CCRF-CEM = test system: CCRF-CEM
U-251 = test system: U-251
IGROV-1 = test system: IGROV-1
NCI-H522 = test system: NCI-H522
NCI-H226 = test system: NCI-H226
HOP-92 = test system: HOP-92
A549 = test system: A549
MDA-MB-231 = test system: MDA-MB-231
SNB-19 = test system: SNB-19
HCC 2998 = test system: HCC 2998
NCI-H460 = test system: NCI-H460
M14 = test system: M14
RPMI-8226 = test system: RPMI-8226
CAKI-1 = test system: CAKI-1
SW-620 = test system: SW-620
OVCAR-8 = test system: OVCAR-8
RXF 393 = test system: RXF 393
SN12C = test system: SN12C
OVCAR-3 = test system: OVCAR-3
HT-29 = test system: HT-29
LOX IMVI = test system: LOX IMVI
A498 = test system: A498
HCT-15 = test system: HCT-15
MDA-MB-435 = test system: MDA-MB-435

Measured: GI50

Cc1cc(S(=O)(=O)Nc2nnc3c4ccccc4cnn23)c(S)cc1Cl
inactive: HCT-116 58.2 µM | BT-549 > 54.5 µM | HOP-62 52.8 µM | SK-MEL-28 > 100 µM | KM12 31.7 µM | HL-60 > 100 µM | OVCAR-4 > 100 µM | SF-539 > 56.9 µM | OVCAR-5 > 100 µM | DU-145 61.9 µM | EKVX 44 µM | UO-31 > 91.2 µM | SR > 100 µM | MOLT-4 > 100 µM | NCI/ADR-RES > 64.7 µM | UACC-62 46.9 µM | SF-295 47.5 µM | K562 > 100 µM | SK-MEL-2 31.6 µM | SNB-75 69.8 µM | MCF7 > 67.3 µM | T47D 74.1 µM | NCI-H23 63 µM | UACC-257 > 100 µM | Hs-578T 40.1 µM | COLO 205 > 100 µM | SK-MEL-5 > 81.5 µM | Malme-3M > 100 µM | 786-0 > 74.3 µM | SK-OV-3 34.7 µM | MDA-N > 100 µM | TK-10 > 100 µM | SF-268 39.9 µM | ACHN > 100 µM | PC-3 > 100 µM | CCRF-CEM > 100 µM | U-251 29.9 µM | IGROV-1 39.2 µM | NCI-H522 > 88.5 µM | NCI-H226 24.1 µM | HOP-92 > 49.9 µM | A549 70.5 µM | MDA-MB-231 > 93.3 µM | SNB-19 26.5 µM | HCC 2998 42.2 µM | NCI-H460 31.3 µM | M14 > 100 µM | RPMI-8226 > 100 µM | CAKI-1 > 100 µM | SW-620 > 100 µM | OVCAR-8 > 100 µM | RXF 393 > 100 µM | SN12C > 100 µM | OVCAR-3 > 86.3 µM | HT-29 > 100 µM | LOX IMVI > 100 µM | A498 > 85.1 µM | MDA-MB-435 > 84.3 µM
> 58.6 µM: HCT-15

CC1=NN(C(=O)c2ccncc2)C(=O)C1/N=N/c1ccc2ccccc2c1 (stereo not drawn)
7.41 µM: HCT-15
inactive: HCT-116 32.7 µM | BT-549 > 100 µM | HOP-62 > 100 µM | SK-MEL-28 > 100 µM | KM12 17.1 µM | HL-60 1.71 µM | OVCAR-4 > 100 µM | SF-539 > 96.8 µM | OVCAR-5 > 60.7 µM | DU-145 > 73.5 µM | EKVX 2.71 µM | UO-31 > 100 µM | SR 5.3 µM | MOLT-4 5.32 µM | NCI/ADR-RES 13.7 µM | UACC-62 44.2 µM | SF-295 91 µM | K562 5.46 µM | SK-MEL-2 14.7 µM | SNB-75 > 100 µM | MCF7 5.32 µM | T47D > 100 µM | NCI-H23 > 64.3 µM | UACC-257 > 100 µM | Hs-578T 5.2 µM | COLO 205 18.7 µM | SK-MEL-5 19.2 µM | Malme-3M > 72.6 µM | 786-0 > 100 µM | SK-OV-3 > 100 µM | MDA-N 2.94 µM | TK-10 60.3 µM | SF-268 69 µM | ACHN > 100 µM | PC-3 > 100 µM | CCRF-CEM 64.6 µM | U-251 > 91 µM | IGROV-1 22.9 µM | NCI-H522 > 100 µM | NCI-H226 > 100 µM | HOP-92 > 100 µM | A549 28.1 µM | MDA-MB-231 20.8 µM | SNB-19 > 100 µM | HCC 2998 3.03 µM | NCI-H460 21.5 µM | M14 12.2 µM | RPMI-8226 > 50.6 µM | CAKI-1 > 100 µM | SW-620 38.7 µM | OVCAR-8 > 100 µM | RXF 393 > 100 µM | SN12C > 100 µM | OVCAR-3 28.1 µM | HT-29 11.7 µM | LOX IMVI 30.1 µM | A498 > 100 µM | MDA-MB-435 3.4 µM

— ChEMBL document CHEMBL1201862, “PubChem BioAssay data set” (2004)
